Source: publication PMC7435722, “Apoferritin and Apoferritin-Capped Metal Nanoparticles Inhibit Arginine Kinase of Trypanosoma brucei” (Molecules, 2020)
Where two headings read alike, the source gives them in different places.

System: T1, arginine kinase of T. brucei (recombinant form)
T1 construct: gene AK1; recombinant, obtained from Rhodes University laboratory
Experiment: phosphate release, molybdate colorimetric […] nm, nonlinear Michaelis-Menten fit
Type: biochemical, Trypanosoma brucei
Conditions: no inhibitor, Mg sulfate, 100 mM Tris-HCl pH 8.6, 30 °C

## Nc1ncnc2c1ncn2[C@@H]1O[C@H](COP(=O)(O)OP(=O)(O)OP(=O)(O)O)[C@@H](O)[C@H]1O [ATP]
2 mM L-arginine fixed, ATP 0.1-0.5 mM, read-out: Km (ATP)
  Km: 5 µM

## N=C(N)NCCC[C@H](N)C(=O)O [L-arginine]
0.5 mM ATP fixed, L-arginine 0.5-2.5 mM, read-out: Km (L-arginine)
  Km: 21 ± 10 µM
